Experimental data reported in the supplement of paper PMC10307832.

What was measured:
Assay in all cases: relative viability (nuclei count vs DMSO), 5 days (fraction); higher = more cells survive
Omipalisib + Trametinib = compound: COc1ncc(-c2ccc3nccc(-c4ccnnc4)c3c2)cc1NS(=O)(=O)c1ccc(F)cc1F [Omipalisib] + CC(=O)Nc1cccc(-n2c(=O)n(C3CC3)c(=O)c3c(Nc4ccc(I)cc4F)n(C)c(=O)c(C)c32)c1 [Trametinib] (partner 0.02 µM)
Outline: (§1)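 Lung cancer cell lines were seeded in 1536-well plates and dosed by pin tool the next day, with either a single drug or a fixed anchor-drug dose combined with five library-drug doses (not always all listed) spaced in √10 steps. Five days later, one step fixed the cells and stained their nuclei (final 0.05% Triton X-100, 1% formaldehyde, 1 ug/ml Hoechst), and nuclei were counted on 4× images. Relative viability is the nuclei count in treated wells divided by the count in vehicle wells, and each value is the median of duplicate plates.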

Omipalisib + Foretinib = compound: COc1ncc(-c2ccc3nccc(-c4ccnnc4)c3c2)cc1NS(=O)(=O)c1ccc(F)cc1F [Omipalisib] + COc1cc2c(Oc3ccc(NC(=O)C4(C(=O)Nc5ccc(F)cc5)CC4)cc3F)ccnc2cc1OCCCN1CCOCC1 [Foretinib] (partner 0.25 µM)
Outline: as §1

Omipalisib + Crizotinib = compound: COc1ncc(-c2ccc3nccc(-c4ccnnc4)c3c2)cc1NS(=O)(=O)c1ccc(F)cc1F [Omipalisib] + C[C@@H](Oc1cc(-c2cnn(C3CCNCC3)c2)cnc1N)c1c(Cl)ccc(F)c1Cl [Crizotinib] (partner 1 µM)
Outline: as §1

Omipalisib + Linsitinib = compound: COc1ncc(-c2ccc3nccc(-c4ccnnc4)c3c2)cc1NS(=O)(=O)c1ccc(F)cc1F [Omipalisib] + C[C@]1(O)C[C@@H](c2nc(-c3ccc4ccc(-c5ccccc5)nc4c3)c3c(N)nccn32)C1 [Linsitinib] (partner 1 µM)
Outline: as §1

Omipalisib + Phenformin = compound: COc1ncc(-c2ccc3nccc(-c4ccnnc4)c3c2)cc1NS(=O)(=O)c1ccc(F)cc1F [Omipalisib] + N=C(N)NC(=N)NCCc1ccccc1 [Phenformin] (partner 250 µM)
Outline: as §1

Omipalisib + Pemetrexed = compound: COc1ncc(-c2ccc3nccc(-c4ccnnc4)c3c2)cc1NS(=O)(=O)c1ccc(F)cc1F [Omipalisib] + Nc1nc2[nH]cc(CCc3ccc(C(=O)N[C@@H](CCC(=O)O)C(=O)O)cc3)c2c(=O)[nH]1 [Pemetrexed] (partner 0.2 µM)
Outline: as §1

Row | Cell Line | relative viability (Omipalisib + Trametinib; first compound 0.0003 µM) | relative viability (Omipalisib + Trametinib; first compound 0.003 µM) | relative viability (Omipalisib + Trametinib; first compound 0.03 µM) | relative viability (Omipalisib + Foretinib; first compound 0.0003 µM) | relative viability (Omipalisib + Foretinib; first compound 0.003 µM) | relative viability (Omipalisib + Foretinib; first compound 0.03 µM) | relative viability (Omipalisib + Crizotinib; first compound 0.0003 µM) | relative viability (Omipalisib + Crizotinib; first compound 0.003 µM) | relative viability (Omipalisib + Crizotinib; first compound 0.03 µM) | relative viability (Omipalisib + Linsitinib; first compound 0.0003 µM) | relative viability (Omipalisib + Linsitinib; first compound 0.003 µM) | relative viability (Omipalisib + Linsitinib; first compound 0.03 µM) | relative viability (Omipalisib + Phenformin; first compound 0.0003 µM) | relative viability (Omipalisib + Phenformin; first compound 0.003 µM) | relative viability (Omipalisib + Phenformin; first compound 0.03 µM) | relative viability (Omipalisib + Pemetrexed; first compound 0.0003 µM) | relative viability (Omipalisib + Pemetrexed; first compound 0.003 µM) | relative viability (Omipalisib + Pemetrexed; first compound 0.03 µM)
1 | HCC-78 | 0.596 | 0.558 | 0.275 | 0.436 | 0.433 | 0.266 | 0.299 | 0.232 | 0.192 | 0.389 | 0.358 | 0.24 | 0.683 | 0.571 | 0.282 | 0.88 | 0.927 | 0.922
2 | HCC-366 | 0.245 | 0.152 | 0.0615 | 0.849 | 0.772 | 0.189 | 0.365 | 0.0929 | 0.041 | 0.394 | 0.156 | 0.0479 | 0.625 | 0.263 | 0.181 | 0.214 | 0.257 | 0.171
3 | HCC-827 | 0.472 | 0.37 | 0.202 | 1.03 | 0.803 | 0.288 | 0.952 | 0.885 | 0.373 | 0.911 | 0.922 | 0.387 | 0.402 | 0.343 | 0.271 | 0.242 | 0.282 | 0.191
4 | HOP-62 | 0.372 | 0.248 | 0.198 | 1.09 | 1.1 | 0.946 | 0.817 | 1 | 0.693 | 1.11 | 0.779 | 0.559 | 0.659 | 0.718 | 0.639 | 0.286 | 0.354 | 0.302
5 | LC-2-ad | 0.86 | 0.754 | 0.605 | 0.961 | 0.743 | 0.411 | 0.478 | 0.395 | 0.253 | 0.848 | 0.587 | 0.314 | 0.438 | 0.368 | 0.258 | 0.279 | 0.26 | 0.275
6 | LCLC-97TM1 | 0.179 | 0.104 | 0.117 | 0.934 | 0.468 | 0.189 | 0.243 | 0.159 | 0.11 | 0.172 | 0.135 | 0.134 | 0.38 | 0.338 | 0.159 | 0.191 | 0.146 | 0.14
7 | LCLC-103H | 0.602 | 0.524 | 0.401 | 0.676 | 0.418 | 0.236 | 1.07 | 0.922 | 0.63 | 1.17 | 1.08 | 0.428 | 0.319 | 0.29 | 0.174 | 0.503 | 0.411 | 0.405
8 | LK-2 | 0.595 | 0.4 | 0.201 | 0.832 | 0.553 | 0.484 | 0.241 | 0.234 | 0.247 | 0.439 | 0.412 | 0.331 | 0.532 | 0.128 | 0.144 | 0.253 | 0.211 | 0.16
9 | LOU-NH91 | 0.788 | 0.666 | 0.593 | 0.901 | 0.838 | 0.564 | 0.737 | 0.65 | 0.504 | 0.876 | 0.717 | 0.512 | 0.738 | 0.522 | 0.504 | 0.408 | 0.431 | 0.448
10 | LU99A | 0.5 | 0.367 | 0.22 | 0.718 | 0.464 | 0.327 | 0.55 | 0.449 | 0.225 | 0.484 | 0.382 | 0.261 | 0.802 | 0.695 | 0.578 | 0.186 | 0.192 | 0.191
11 | NCI-H727 | 0.381 | 0.337 | 0.264 | 0.937 | 0.609 | 0.421 | 0.707 | 0.649 | 0.391 | 0.276 | 0.245 | 0.234 | 0.817 | 0.447 | 0.509 | – | – | –
12 | NCI-H1395 | 1.05 | 0.83 | 0.615 | 0.916 | 0.886 | 0.586 | – | – | – | 1.03 | 0.905 | 0.592 | 0.414 | 0.403 | 0.393 | 0.737 | 0.657 | 0.602
13 | NCI-H1650 | 0.438 | 0.633 | 0.512 | 1.19 | 0.968 | 0.656 | 0.794 | 1.16 | 0.717 | – | – | – | 0.371 | 0.257 | 0.168 | 0.37 | 0.38 | 0.322
14 | NCI-H1792 | 0.42 | 0.169 | 0.116 | – | – | – | 0.971 | 0.848 | 0.269 | 0.417 | 0.441 | 0.164 | 0.351 | 0.115 | 0.0784 | 0.835 | 0.319 | 0.103
15 | NCI-H1793 | 0.375 | 0.334 | 0.194 | 0.559 | 0.399 | 0.244 | – | – | – | 0.648 | 0.416 | 0.288 | 0.372 | 0.22 | 0.188 | 0.696 | 0.463 | 0.24
16 | NCI-H2170 | 0.801 | 0.545 | 0.303 | 0.945 | 0.565 | 0.565 | 1.04 | 0.786 | 0.418 | – | – | – | 0.459 | 0.432 | 0.375 | 0.26 | 0.262 | 0.253
